Test results reported in US9206130B2, “Quinoline derivatives as AXL kinase inhibitors” (Max-Planck-Gesellschaft zur Förderung der Wissenschaften …, priority 2008, dated 2015).

How the values were obtained:
[1] = target: T1, wild type AXL (wtAXL) receptor tyrosine kinase (Homo sapiens, UniProt P30530); experiment: NIH-3T3-AXL cellular tyrosine kinase assay (inhibition of AXL phosphorylation); format: cell-based; conditions: AXL phosphorylation in NIH-3T3-AXL (clone 22) cells, serum-depleted, 2 h with compound, immunoprecipitation / anti-phosphotyrosine blot
T1 construct: WtAXL cDNA was cloned into vector pLXSN(ESK) and transfected into Phoenix E packaging cells; expressed in transfected cells; host or cells: NIH3T3 N7 mouse fibroblasts, retrovirally infected (clone 22)
T1 sequence (P30530 26-894): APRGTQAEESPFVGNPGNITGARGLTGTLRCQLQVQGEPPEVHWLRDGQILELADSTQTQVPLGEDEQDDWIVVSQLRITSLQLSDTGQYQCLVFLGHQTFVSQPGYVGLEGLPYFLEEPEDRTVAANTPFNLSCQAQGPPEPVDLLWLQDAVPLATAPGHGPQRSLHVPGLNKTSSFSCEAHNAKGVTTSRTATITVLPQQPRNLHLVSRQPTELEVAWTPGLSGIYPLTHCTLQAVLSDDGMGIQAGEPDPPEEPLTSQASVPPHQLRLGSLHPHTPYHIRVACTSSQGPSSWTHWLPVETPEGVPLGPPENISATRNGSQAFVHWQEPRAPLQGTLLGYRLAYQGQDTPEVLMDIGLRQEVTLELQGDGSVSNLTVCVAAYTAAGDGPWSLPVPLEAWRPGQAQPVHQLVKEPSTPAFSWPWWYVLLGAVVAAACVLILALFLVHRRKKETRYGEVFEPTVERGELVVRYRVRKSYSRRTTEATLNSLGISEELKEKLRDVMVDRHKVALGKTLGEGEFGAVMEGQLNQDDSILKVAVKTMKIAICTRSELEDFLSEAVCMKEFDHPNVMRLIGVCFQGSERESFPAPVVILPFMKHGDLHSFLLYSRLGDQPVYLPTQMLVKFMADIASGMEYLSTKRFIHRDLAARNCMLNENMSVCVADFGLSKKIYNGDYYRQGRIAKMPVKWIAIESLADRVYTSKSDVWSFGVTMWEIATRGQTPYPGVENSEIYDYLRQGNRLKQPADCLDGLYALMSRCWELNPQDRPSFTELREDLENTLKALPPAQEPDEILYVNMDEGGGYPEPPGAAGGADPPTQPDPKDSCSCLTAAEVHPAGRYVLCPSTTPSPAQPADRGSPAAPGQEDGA
Method in brief: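 NIH3T3 clones stably expressing human wtAXL (puromycin-selected) were exposed to serially diluted compounds for 2 h. AXL was immunoprecipitated from lysates with anti-AXL antibody, and phosphorylation detected by anti-phosphotyrosine (4G10) western blot with ECL.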

SMILES: COc1cc2c(Oc3ccc(NS(=O)(=O)c4ccccc4OC(F)(F)F)cc3F)ccnc2cc1OCCN1CCOCC1 [Example D06, N-{3-Fluoro-4-[6-methoxy-7-(2-morpholin-4-yl-ethoxy)-quinolin-4-yloxy]-phenyl}-2-trifluoromethoxy-benzenesulfonamide]
- IC50 [1]: 69 nM
- melting point: 185 to 187 °C

SMILES: COc1cc2c(Oc3ccc(NS(=O)(=O)c4cccc(-c5ccccc5)c4)c(C)c3)ccnc2cc1OCCN1CCOCC1 [Example D07, Biphenyl-3-sulfonic acid {4-[6-methoxy-7-(2-morpholin-4-yl-ethoxy)-quinolin-4-yloxy]-2-methyl-phenyl}-amide]
- IC50 [1]: 350 nM
- melting point: 105 to 107 °C

SMILES: COc1cc2c(Oc3ccc(NS(=O)(=O)c4ccccc4OC(F)(F)F)c(C)c3)ccnc2cc1OCCN1CCOCC1 [Example D08, N-{4-[6-Methoxy-7-(2-morpholin-4-yl-ethoxy)-quinolin-4-yloxy]-2-methyl-phenyl}-2-trifluoromethoxy-benzenesulfonamide]
- IC50 [1]: 2500 nM
- melting point: 186 to 188 °C

SMILES: COc1cc2c(Oc3ccc(NS(=O)(=O)c4cc(F)ccc4F)c(C)c3)ccnc2cc1OCCN1CCOCC1 [Example D09, 2,5-Difluoro-N-{4-[6-methoxy-7-(2-morpholin-4-yl-ethoxy)-quinolin-4-yloxy]-2-methyl-phenyl}-benzenesulfonamide]
- IC50 [1]: 2460 nM
- melting point: 195 to 196 °C

SMILES: COc1cc2c(Oc3ccc(NS(=O)(=O)c4ccccc4C(F)(F)F)c(C)c3)ccnc2cc1OCCN1CCOCC1 [Example D11, N-{4-[6-Methoxy-7-(2-morpholin-4-yl-ethoxy)-quinolin-4-yloxy]-2-methyl-phenyl}-2-trifluoromethyl-benzenesulfonamide]
- IC50 [1]: > 3000 nM
- melting point: 127 to 130 °C

SMILES: COc1cc2c(Oc3ccc(NS(=O)(=O)c4ccc(Cl)cc4F)cc3F)ccnc2cc1OCCN1CCOCC1 [Example D12, 4-Chloro-2-fluoro-N-{3-fluoro-4-[6-methoxy-7-(2-morpholin-4-yl-ethoxy)-quinolin-4-yloxy]-phenyl}-benzenesulfonamide]
- IC50 [1]: 300 nM
- melting point: 212 to 214 °C

SMILES: COc1cc2c(Oc3ccc(NS(=O)(=O)c4ccc(OC)c5ccccc45)cc3F)ccnc2cc1OCCN1CCOCC1 [Example D13, 4-Methoxy-naphthalene-1-sulfonic acid {3-fluoro-4-[6-methoxy-7-(2-morpholin-4-yl-ethoxy)-quinolin-4-yloxy]-phenyl}-amide]
- IC50 [1]: 57 nM
- melting point: 189 to 190 °C

SMILES: COc1cc2c(Oc3ccc(NS(=O)(=O)c4ccccc4OC(F)(F)F)cc3F)ccnc2cc1OCCCNC(=O)OC(C)(C)C [Example D16, (3-{4-[2-Fluoro-4-(2-trifluoromethoxy-benzenesulfonylamino)-phenoxy]-6-methoxy-quinolin-7-yloxy}-propyl)-carbamic acid tert-butyl ester]
- IC50 [1]: 271 nM
- melting point: 181 to 183 °C

SMILES: COc1cc2c(Oc3ccc(NS(=O)(=O)c4ccccc4C(F)(F)F)cc3F)ccnc2cc1OCCCN1CCC(C)CC1 [Example D17, N-(3-Fluoro-4-{6-methoxy-7-[3-(4-methyl-piperidin-1-yl)-propoxy]-quinolin-4-yloxy}-phenyl)-2-trifluoromethyl-benzenesulfonamide]
- IC50 [1]: 46 nM
- melting point: 110 to 112 °C

SMILES: COc1cc2c(Oc3ccc(NS(=O)(=O)c4ccccc4Br)cc3F)ccnc2cc1OCCCN1CCC(C)CC1 [Example D18, 2-Bromo-N-(3-fluoro-4-{6-methoxy-7-[3-(4-methyl-piperidin-1-yl)-propoxy]-quinolin-4-yloxy}-phenyl)-benzenesulfonamide]
- IC50 [1]: 151 nM
- melting point: 184 to 186 °C

SMILES: COc1cc2c(Oc3ccc(NS(=O)(=O)c4ccc(F)cc4F)cc3F)ccnc2cc1OCCCN1CCC(C)CC1 [Example D19, 2,4-Difluoro-N-(3-fluoro-4-{6-methoxy-7-[3-(4-methyl-piperidin-1-yl)-propoxy]-quinolin-4-yloxy}-phenyl)-benzenesulfonamide]
- IC50 [1]: 128 nM
- melting point: 135 to 137 °C

SMILES: COc1cc2c(Oc3ccc(NS(=O)(=O)c4c(F)cccc4F)cc3F)ccnc2cc1OCCCN1CCC(C)CC1 [Example D20, 2,6-Difluoro-N-(3-fluoro-4-{6-methoxy-7-[3-(4-methyl-piperidin-1-yl)-propoxy]-quinolin-4-yloxy}-phenyl)-benzenesulfonamide]
- IC50 [1]: 29 nM
- melting point: 200 to 203 °C

SMILES: COc1cc2c(Oc3ccc(NS(=O)(=O)c4cccc5ccccc45)cc3F)ccnc2cc1OCCCN1CCC(C)CC1 [Example D21, Naphthalene-1-sulfonic acid (3-fluoro-4-{6-methoxy-7-[3-(4-methyl-piperidin-1-yl)-propoxy]-quinolin-4-yloxy}-phenyl)-amide]
- IC50 [1]: 347 nM
- melting point: 140 to 143 °C

SMILES: CCCS(=O)(=O)Nc1ccc(Oc2ccnc3cc(OCCCN4CCC(C)CC4)c(OC)cc23)c(F)c1 [Example D22, Propane-1-sulfonic acid (3-fluoro-4-{6-methoxy-7-[3-(4-methyl-piperidin-1-yl)-propoxy]-quinolin-4-yloxy}-phenyl)-amide]
- IC50 [1]: 477 nM
- melting point: 160 to 162 °C

SMILES: COc1cc2c(Oc3ccc(NS(=O)(=O)c4ccccc4C#N)cc3F)ccnc2cc1OCCCN1CCC(C)CC1 [Example D23, 2-Cyano-N-(3-fluoro-4-{6-methoxy-7-[3-(4-methyl-piperidin-1-yl)-propoxy]-quinolin-4-yloxy}-phenyl)-benzenesulfonamide]
- IC50 [1]: 211 nM
- melting point: 139 to 142 °C

SMILES: COc1cc2c(Oc3ccc(NS(=O)(=O)c4ccc(Cl)cc4F)cc3F)ccnc2cc1OCCCN1CCCC(C)C1 (stereo not shown) [Example D24, 4-Chloro-2-fluoro-N-(3-fluoro-4-{6-methoxy-7-[3-(3-methyl-piperidin-1-yl)-propoxy]-quinolin-4-yloxy}-phenyl)-benzenesulfonamide]
- IC50 [1]: 181 nM
- melting point: 136 to 138 °C

SMILES: CCCCS(=O)(=O)Nc1ccc(Oc2ccnc3cc(OCCCN4CCCC(C)C4)c(OC)cc23)c(F)c1 (stereo not shown) [Example D25, Butane-1-sulfonic acid (3-fluoro-4-{6-methoxy-7-[3-(3-methyl-piperidin-1-yl)-propoxy]-quinolin-4-yloxy}-phenyl)-amide]
- IC50 [1]: 378 nM
- melting point: 104 to 106 °C

SMILES: COc1cc2c(Oc3ccc(NS(=O)(=O)c4ccccc4Br)cc3F)ccnc2cc1OCCN1CCOCC1 [Example D26, 2-Bromo-N-{3-fluoro-4-[6-methoxy-7-(2-morpholin-4-yl-ethoxy)-quinolin-4-yloxy]-phenyl}-benzenesulfonamide]
- IC50 [1]: 150 nM
- melting point: 175 to 177 °C

SMILES: COc1cc2c(Oc3ccc(NS(=O)(=O)c4ccccc4C#N)cc3F)ccnc2cc1OCCN1CCOCC1 [Example D27, 2-Cyano-N-{3-fluoro-4-[6-methoxy-7-(2-morpholin-4-yl-ethoxy)-quinolin-4-yloxy]-phenyl}-benzenesulfonamide]
- IC50 [1]: 783 nM
- melting point: 193 to 196 °C

SMILES: COc1cc2c(Oc3ccc(NS(=O)(=O)c4ccc(F)cc4F)cc3F)ccnc2cc1OCCN1CCOCC1 [Example D28, 2,4-Difluoro-N-{3-fluoro-4-[6-methoxy-7-(2-morpholin-4-yl-ethoxy)-quinolin-4-yloxy]-phenyl}-benzenesulfonamide]
- IC50 [1]: > 1000 nM
- melting point: 189 to 191 °C

SMILES: COc1cc2c(Oc3ccc(NS(=O)(=O)c4cccc(-c5ccccc5)c4)cc3F)ccnc2cc1OCCCN1CCC(C)CC1 [Example D29, Biphenyl-3-sulfonic acid (3-fluoro-4-{6-methoxy-7-[3-(4-methyl-piperidin-1-yl)-propoxy]-quinolin-4-yloxy}-phenyl)-amide]
- IC50 [1]: 178 nM
- melting point: 196 to 198 °C

SMILES: COc1cc2c(Oc3ccc(NS(=O)(=O)c4ccccc4F)cc3F)ccnc2cc1OCCCN1CCCC(C)C1 (stereo not shown) [Example D30, 2-Fluoro-N-(3-fluoro-4-{6-methoxy-7-[3-(3-methyl-piperidin-1-yl)-propoxy]-quinolin-4-yloxy}-phenyl)-benzenesulfonamide]
- IC50 [1]: 82 nM
- melting point: 102 to 106 °C

SMILES: COc1cc2c(Oc3ccc(NS(=O)(=O)c4ccccc4C#N)cc3F)ccnc2cc1OCCCN1CCCC(C)C1 (stereo not shown) [Example D31, 2-Cyano-N-(3-fluoro-4-{6-methoxy-7-[3-(3-methyl-piperidin-1-yl)-propoxy]-quinolin-4-yloxy}-phenyl)-benzenesulfonamide]
- IC50 [1]: 323 nM
- melting point: 131 to 132 °C
